pIC50: −log10 of the molar value. Converted amounts (≈) assume the structure as drawn. Read-outs that look alike come from different tables or passages of the source.
How the values were obtained:
[1] = In vitro cytotoxicity MTT assay; type: cell-based, Chinese hamster; details: Chinese hamster, Chinese hamster ovarian (CHO) cells; MTT assay
Protocol: (§1) In vitro cytotoxicity was performed on the Chinese Hamster Ovarian cell line by measuring cellular growth and survival calorimetrically through the MTT assay.[29],[30] The formation of tetrazolium salt was used as a measure of chemosensitivity and growth. (Details of this assay is described in the Supporting Information.) page 19: et al, 1993). The test samples were prepared to a 10 mmol/L stock solution in 100% DMSO. Samples were tested as a suspension if not completely dissolved. Further dilutions to the desired starting concentration were freshly prepared in growth media on each occasion of the experiment. The standard antimalarial drugs chloroquine (CQ) and artesunate (Arts) were used as the reference drug in all experiments. A full dose-response was performed for all compounds […] value). Test samples were tested at a starting concentration of 6mmol/L, which was then serially diluted 2-fold in growth medium to generate the tested concentration range. The same dilution technique was used for all samples. CQ and Arts were tested from a starting concentration of 1μg/mL. The highest concentration of solvent to which the parasites were exposed was <0.1% and has no measurable effect on the parasite viability (data not shown). The assay plate was incubated at 37 °C for 72h in a sealed gas chamber under 3% O2 and 4% CO2 with the balance being N2. After 72h, the wells in the assay plate were gently resuspended, and 15μL from each well was transferred to a duplicate plate containing 100μL of Malstat reagent and 25μL of nitroblue tetrazolium solution in each well. Plates were left to develop for 20 minutes in the dark and then absorbance of each well was quantified using a spectrophotometer at 620nm wavelength. The remaining population of parasites at each concentration of the test compound was determined by comparing the absorbance of each well to the absorbance of a well containing the drug-free control. Survival was plotted against concentration and the IC50 values were obtained using a non-linear dose-response curve fitting analysis via the Dotmatics software platform.2 In vitro Cytotoxicity Assay In vitro cytotoxicity was performed on the Chinese Hamster Ovarian cell line by measuring […] diphenyltetrazolium bromide (MTT) assay.3,4 The formation of tetrazolium salt was used as a measure of chemosensitivity and growth. 2 mg/mL stock solutions of the test compounds were prepared in DMSO and stored at -20 °C until required. The stock solution was subsequently diluted with the assay medium to make up an initial concentration of 100 μg/mL. The initial 100 μg/mL solution is serially diluted 10- S19 page 20: fold to attain six assay concentrations of 100-0.001 μg/mL. […] was used as the reference compound in this assay. The highest concentration of DMSO, which was used as the negative control, had no measurable effect on cell viability. After 44 hours of exposure of the cells to the test compounds, a solution of MTT was added. This was followed by an additional 4 hours of incubation at 37 °C. The assay plates were centrifuged, medium removed, and DMSO was added to the crystals. The amount of formazan was ascertained by measuring the absorbance at 540 nm. GraphPad Prism software was then used to generate IC50 values through a non-linear dose-response curve analysis. β-Hematin Inhibition Assay 20 mM stock solutions of controls and test compounds were made in DMSO. A solution […] was added to every well in columns 1-11 of a 96-well plate. 140 μL of water and 40 μL of 305.5 μM NP-40 were added to column 12 to mediate the formation of beta-hematin. 20 μL of test compounds (20 mM) were added to column 12 and 100 μL of this solution serially diluted to column 2, leaving column 1 blank (0 μM of test compound). 178.8 μL aliquot of hematin stock was suspended in 20 ml of a 1 M acetate buffer at pH 4.9. 100 μL of this hematin suspension was then added into each well, and the plates were incubated for ±5 hrs at 37°C. […]

[2] = test system: Chinese hamster ovarian (CHO) cell line; assay: In vitro cytotoxicity MTT assay; type: cell-based; details: CHO vs PfNF54
Protocol: as §1

Solubility = type: physicochemical; details: pH 6.5, aqueous buffer
Description: Table 1 In Vitro Antiplasmodium Activity, Cytotoxicity, BHIA, and Solubility | column: Solubility pH 6.5, μM

[3] = test system: multidrug-resistant (K1) strain of P. falciparum; assay: In vitro asexual blood-stage antiplasmodium pLDH assay, K1 strain; type: cell-based; details: Plasmodium falciparum, 72 h, n ≥ 3, read-out: In vitro antiplasmodium activity IC50 PfK1 strain
Protocol: (§2) Compounds were screened against multi-drug-resistant (K1) and sensitive (NF54) strains of P. falciparum in vitro using a parasite lactate dehydrogenase assay (pLDH) (the method is described fully in the Supporting Information). […]
(§3) In vitro Asexual Blood Stage Antiplasmodium Assay
(§4) Parasites were cultured as per the method of Trager and Jensen,1 with modifications. IC50 values were determined using parasite lactate dehydrogenase as a marker for survival (Makler […]
(§5) et al, 1993). The test samples were prepared to a 10 mmol/L stock solution in 100% DMSO.
(§6) Samples were tested as a suspension if not completely dissolved. Further dilutions to the desired starting concentration were freshly prepared in growth media on each occasion of the experiment. The standard antimalarial drugs chloroquine (CQ) and artesunate (Arts) were used as the reference drug in all experiments. A full dose-response was performed for all compounds in a 96-well plate to determine the concentration inhibiting 50% of parasite growth (IC50– value). Test samples were tested at a starting concentration of 6mmol/L, which was then serially diluted 2-fold in growth medium to generate the tested concentration range. The same dilution technique was used for all samples. CQ and Arts were tested from a starting concentration of 1µg/mL. The highest concentration of solvent to which the parasites were exposed was <0.1% and has no measurable effect on the parasite viability (data not shown).
(§7) The assay plate was incubated at 37 °C for 72h in a sealed gas chamber under 3% O2 and 4% CO2 with the balance being N2. After 72h, the wells in the assay plate were gently resuspended, and 15µL from each well was transferred to a duplicate plate containing 100µL of Malstat reagent and 25µL of nitroblue tetrazolium solution in each well. Plates were left to develop for 20 minutes in the dark and then absorbance of each well was quantified using a spectrophotometer at 620nm wavelength.
(§8) The remaining population of parasites at each concentration of the test compound was determined by comparing the absorbance of each well to the absorbance of a well containing […]
(§9) the drug-free control. […]
(§10) The initial 100 µg/mL solution is serially diluted 10-

[4] = test system: chloroquine-sensitive (NF54) strain of P. falciparum; assay: In vitro asexual blood-stage antiplasmodium pLDH assay, NF54 strain; type: cell-based; details: Plasmodium falciparum
Protocol: as §2, §3, §4, §5, §6, §7, §8, §9, §10

β-hematin = assay: β-Hematin inhibition assay (BHIA), cell-free NP-40 mediated; type: biochemical; details: mean of n = 3
Protocol: page 20: fold to attain six assay concentrations of 100-0.001 μg/mL. […] was used as the reference compound in this assay. The highest concentration of DMSO, which was used as the negative control, had no measurable effect on cell viability. After 44 hours of exposure of the cells to the test compounds, a solution of MTT was added. This was followed by an additional 4 hours of incubation at 37 °C. The assay plates were centrifuged, medium removed, and DMSO was added to the crystals. The amount of formazan was ascertained by measuring the absorbance at 540 nm. GraphPad Prism software was then used to generate IC50 values through a non-linear dose-response curve analysis. β-Hematin Inhibition Assay 20 mM stock solutions of controls and test compounds were made in DMSO. A solution […] was added to every well in columns 1-11 of a 96-well plate. 140 μL of water and 40 μL of 305.5 μM NP-40 were added to column 12 to mediate the formation of beta-hematin. 20 μL of test compounds (20 mM) were added to column 12 and 100 μL of this solution serially diluted to column 2, leaving column 1 blank (0 μM of test compound). 178.8 μL aliquot of hematin stock was suspended in 20 ml of a 1 M acetate buffer at pH 4.9. 100 μL of this hematin […] pH 7.4 and 50% pyridine) and 60 μL of acetone were added to all wells. The absorbances of plate wells were recorded at 405 nm on a SpectraMax plate reader. Sigmoidal dose-response curves with variable slopes were fitted to the absorbance data using GraphPad Prism to obtain the IC50 values for each compound. In vitro Microsomal Stability Assay The in vitro microsomal stability assay was performed in duplicate in a 96-well micro titre […] individually in human (pool of 50, mixed gender), rat (pool of 711, male Sprague Dawley) and mouse (pool of 1634, male CD1) liver microsomes (final protein concentration of 0.4 mg/mL; Xenotech, Kansas, USA), suspended in 0.1M phosphate buffer (pH 7.4). Incubations were S20

[5] = NF54, pLDH, 72 h, n ≥ 3, read-out: In vitro antiplasmodium activity IC50 PfNF54 strain

solubility (Solubility)	pIC50 [3]	pIC50 [4, 5]	pIC50 (β-hematin)	pIC50 ([4]; NF54, controls, strain not stated in footnote, read-out: IC50 of controls in pLDH antiplasmodium assay)	Compound	IC50 at 44 h [1]	SI (selectivity index) = IC50 CHO/IC50 PfNF54 [2]	pIC50 ([4]; NF54, read-out: IC50 of controls in pLDH antiplasmodium assay)
170 µM (≈ 68 µg/mL)	5.22	6.17	3.89	–	CCN(CCNc1cc2[nH]c(C3CCC3)nc2cn1)Cc1ccc(Cl)cc1O [Compound 9, 5-Chloro-2-(((2-((2-cyclobutyl-1H-imidazo[4,5-c]pyridin-6-yl)amino)ethyl)(ethyl)amino)methyl)phenol]	> 50 µM	>74.63	–
150 µM (≈ 66.3 µg/mL)	5.61	6.17	3.86	–	CCN(CCNc1cc2[nH]c(C3CCCCCC3)nc2cn1)Cc1ccc(Cl)cc1O [Compound 15, 5-Chloro-2-(((2-((2-cycloheptyl-1H-imidazo[4,5-c]pyridin-6-yl)amino)ethyl)(ethyl)amino)methyl)phenol]	50 µM	74.60	–
–	–	–	–	–	CCN(CC)CCCC(C)Nc1ccnc2cc(Cl)ccc12 (centres unmarked) [chloroquine, reference compound]	–	–	7.92
135 µM (≈ 48.6 µg/mL)	5.39	5.60	3.59	–	CCN(CCNc1cc2[nH]c(C)nc2cn1)Cc1ccc(Cl)cc1O [Compound 4, 5-Chloro-2-((ethyl(2-((2-methyl-1H-imidazo[4,5-c]pyridin-6-yl)amino)ethyl)amino)methyl)phenol]	> 50 µM	>19.76	–
–	–	7.31	–	–	O=[N+]([O-])c1ccc(NCCN(CCNc2cc3[nH]c(-c4cccc(C(F)(F)F)c4)nc3cn2)Cc2ccc(Cl)cc2O)c2nonc12 [Compound 14-NBD, 5-Chloro-2-(((2-((7-nitrobenzo[c][1,2,5]oxadiazol-4-yl)amino)ethyl)(2-((2-(3-(trifluoromethyl)phenyl)-1H-imidazo[4,5-c]pyridin-6-yl)amino)ethyl)amino)methyl)phenol]	–	–	–
175 µM (≈ 76.3 µg/mL)	5.28	6.07	4.12	–	CCN(CCNc1cc2[nH]c(C3CC(F)(F)C3)nc2cn1)Cc1ccc(Cl)cc1O [Compound 10, 5-Chloro-2-(((2-((2-(3,3-difluorocyclobutyl)-1H-imidazo[4,5-c]pyridin-6-yl)amino)ethyl)(ethyl)amino)methyl)phenol]	> 50 µM	>58.14	–
185 µM (≈ 74 µg/mL)	5.22	6.25	3.35	–	CCN(CCNc1cc2[nH]c(CC3CC3)nc2cn1)Cc1ccc(Cl)cc1O [Compound 8, 5-Chloro-2-(((2-((2-(cyclopropylmethyl)-1H-imidazo[4,5-c]pyridin-6-yl)amino)ethyl)(ethyl)amino)methyl)phenol]	> 50 µM	>89.29	–
120 µM (≈ 55 µg/mL)	5.63	5.54	4.74	–	CCN(CCNc1cc2[nH]c(C3CCC(OC)CC3)nc2cn1)Cc1ccc(Cl)cc1O (centres unmarked) [Compound 18, 5-Chloro-2-((ethyl(2-((2-(4-methoxycyclohexyl)-1H-imidazo[4,5-c]pyridin-6-yl)amino)ethyl)amino)methyl)phenol]	> 50 µM	>17.18	–
140 µM (≈ 59.9 µg/mL)	5.67	6.16	4.10	–	CCN(CCNc1cc2[nH]c(C3CCCCC3)nc2cn1)Cc1ccc(Cl)cc1O [Compound 11, 5-Chloro-2-(((2-((2-cyclohexyl-1H-imidazo[4,5-c]pyridin-6-yl)amino)ethyl)(ethyl)amino)methyl)phenol]	> 50 µM	>72.46	–
–	–	–	–	8.15	C[C@H]1[C@H](OC(=O)CCC(=O)O)O[C@@H]2O[C@@]3(C)CC[C@H]4[C@H](C)CC[C@@H]1[C@@]24OO3 [artesunate, reference compound]	–	–	–
< 5 µM	5.43	6.03	4.51	–	CCN(CCNc1cc2[nH]c(C3CCC(F)(F)CC3)nc2cn1)Cc1ccc(Cl)cc1O [Compound 12, 5-Chloro-2-(((2-((2-(4,4-difluorocyclohexyl)-1H-imidazo[4,5-c]pyridin-6-yl)amino)ethyl)(ethyl)amino)methyl)phenol]	> 50 µM	–	–

Source: article PMC10111423, “Antimalarial Imidazopyridines Incorporating an Intramolecular Hydrogen Bonding Motif: Medicinal Chemistry and Mechanistic Studies” (ACS Infectious Diseases, 2023)
